# Read-outs that look alike come from different tables or passages of the source.
# Columns and labels:
# [1] = Cytotoxicity (IC50) on Balb/3T3; assay type: cell-based; details: mouse, Balb/3T3 cells
# Description: (§1) Human tumor cell lines (MCF-7, CL1-5, HT-29, Caco-2), human umbilical vascular endothelial cells (HUVEC), and human dermal fibroblasts (HDF) were tested for sensitivity on Angelicae sinensis extracts, ligustilide, n-butylidenephthalide and its derivatives in vitro. The DBTRG-05MG, BCM, HL-60 and J5 cells were grown in RPMI-1640 medium containing 10% fetal calf serum and 100 ng/ml penicillin and […] streptomycin at 37° C. in a humidified atmosphere with 5% CO2. The G5T/VGH, RG2, Ni 8, SVEC and Balb/3T3 cells were cultured in DMEM with 10% fetal calf serum and 100 ng/ml penicillin and […] streptomycin at 37° C. in 5% CO2. Mycoplasma infection of the culture cells was excluded by PCR screening methods before each experiment.
# (§2) The effects on cell viability after the treatments with different concentrations of the Angelicae sinensis extracts or the active components purified therefrom were evaluated by modified MTT assay in triplicate. Briefly, the cells (5×10^3) were incubated into 96-well plates containing 100 μl of a growth medium. The cells were permitted to adhere for 24 hours, then treated with 100 μl of the herbal extracts or the active components dissolved in the medium. The control contained DMSO of <0.02% (v/v). […] Absorbance at 550 nm of the solutions was measured with MRX Microtiter Plate Luminometer (DYNEX, USA). The absorbance of untreated cells was considered as 100%. […]
# Caco-2 = experiment: Cytotoxicity (IC50) on Caco-2; assay type: cell-based; details: Homo sapiens
# Description: as §1, §2
# MMP-2 = experiment: RT-PCR of MMP-2 in HUVEC; assay type: cell-based, human
# RG2 cells = experiment: In situ (intra-cranial) RG2 GBM tumor in rats, MRI tumor volume; assay type: in vivo, F344 rats; details: BP 300 mg/kg/day s.c. day 4-8, i.c. RG2
# Description: The RG2 cells (rat GBM) and DBTRG-05MG cells (human GBM) were used in animal experiments to monitor the anti-tumor activities of AS-C and BP. Male F344 rat (230-260 g) and male Foxn1 nu/nu mice (10-12 weeks) were obtained from National Laboratory Animal Center (Taipei, Taiwan). All procedures were performed in compliance with the Standard Operation Procedures of the Laboratory Animal Center of Tzu Chi University (Hualien, Taiwan). Animals were kept under pathogen-free conditions and fed a standard laboratory diet. The DBTRG-05MG cells (human GBM) and RG2 cells (rat GBM) were prepared for nude mice xenografts and rat allogenics, respectively.
# The cytotoxic effect of AS-C on in situ tumor was determined with RG2 cells. […] Tumor volumes were measured and calculated by 3-T unit MRI (General Electric, Wisconsin, USA) with echo-planar imaging capability (Signa LX 3.8, General Electric, Wisconsin, USA) in Buddhist Tzu Chi General Hospital (Hualien, Taiwan). […]
# The rats in two groups (6/group) were implanted i.c. (striatum) with 5×10^4 RG2 cells, and randomly treated with BP (300 mg/kg/day) or vehicle s.c. in the hind flank region after tumor cell implantation at day 4, 5, 6, 7 and 8 for five dosages. Tumor volume was measured and calculated by MRI. […] Finally, the whole tumor sizes (mm^3) were measured and calculated for each group.
# HCT15 = experiment: Cytotoxicity (IC50) on HCT15; assay type: cell-based; details: Homo sapiens, HCT-15
# Description: The effects on cell viability after the treatments with different concentrations of the Angelicae sinensis extracts or the active components purified therefrom were evaluated by modified MTT assay in triplicate. Briefly, the cells (5×10^3) were incubated into 96-well plates containing 100 μl of a growth medium. The cells were permitted to adhere for 24 hours, then treated with 100 μl of the herbal extracts or the active components dissolved in the medium. The control contained DMSO of <0.02% (v/v). After 24, 48 and 72 h incubation, the drug-containing medium was replaced by 50 μl of fresh medium, and cells in each well were incubated in 50 μl of 400 μg/ml MTT for 6-8 h. The medium and MTT were removed later and 100 μl of DMSO was added to each well and to the control, to dissolve the soluble components. Absorbance at 550 nm of the solutions was measured with MRX Microtiter Plate Luminometer (DYNEX, USA). The absorbance of untreated cells was considered as 100%. To evaluate the effects of the extracts or the active components on cell growth rate of GBM cells, 5×10^3 exponentially growing cells were treated with different concentrations for 24, 48, or 72 h. The cytotoxicity of each test substance was determined as an IC50 value, which represents the drug concentration required to cause 50% inhibition. All experiments in this study were performed in triplicate.
# GBM cells (DBTRG-05MG) = experiment: Apoptosis of GBM cells by TUNEL; assay type: cell-based, human
# Description: Apoptotic cell death was analyzed using In Situ Cell Death Detection Kit, POD (Roche, Germany). Changes in DNA chromatin morphologic features were used for quantification. The procedures were performed in accordance with the manufacturer's instructions. […] In AS-C and BP-treated groups, the suspended cells were collected. In the control group, adherent and floating cells were collected. Then, the cells were fixed with 3.7% formaldehyde at room temperature for 15 min. on saline coated slides, washed once in 1×PBS, and incubated in cold permeabilization solution (0.1% Triton X-100+0.1% sodium citrate) after reducing activity of endogenous peroxidase with 3% H2O2. The cells were washed with 1×PBS again, and incubated with terminal deoxynucleiotidyl transferase (TdT)-mediated dUTP nicks labeling (TUNEL) reaction mixture for 60 minutes at 37° C. Then, the cells were washed with 1×PBS, counterstained with propidium iodide (PI) for cell counting. For quantification of apoptosis, the results were viewed under fluorescence microscopy (Nikon, Kawasaki, Japan).
# The apoptotic cells with AS-C treatment were detected by fluorescence microscopy (400×), with In Situ TUNEL staining and propidium iodide cell counterstaining, and observed under light field. Likewise, BP induced apoptosis in GBM cells was assessed by TUNEL method and using propidium iodide as a counter stain. […]
compound,measurement,setting,value
"CCCC=C1OC(=O)c2ccccc21 [BP, n-Butylidenephthalide]",IC50,[1]; Table 2,> 300 µg/mL
same,IC50,"[1]; Table 2, value in parentheses",> 1600 µM
same,IC50,"Caco-2; Table 1, value in parentheses",> 106 µM
same,IC50,"Caco-2; cancer cells, Table 1",> 20 µg/mL
same,Inhibition RT-PCR MMP-2,MMP-2,159.4 µg/mL
same,Inhibition RT-PCR MMP-2,MMP-2; value in parentheses,(847.9 μM)
same,mean tumor volume at day 14 (MRI),RG2 cells,46.6±1.8 mm^3
same,mean tumor volume at day 16 (MRI),RG2 cells,91.68±8.3 mm^3
same,IC50,HCT15; Table 2,25 to 30 µg/mL
same,IC50,"HCT15; Table 2, value in parentheses",133 to 160 µM
same,apoptosis rates of GBM cells compared to untreated cells (TUNEL),"GBM cells (DBTRG-05MG); BP 5 to 800 μM, 48 hours",much higher
same,detached GBM cells having undergone apoptosis (TUNEL),"GBM cells (DBTRG-05MG); BP 5˜800 μg/ml as printed, 72 hours",almost all

# — patent publication US7455861B2, “Angelicae sinensis extracts useful for treatment of cancers” (priority 2004, dated 2008)
